Reference: US11478460B2, “Diaryl substituted 6,5-fused ring compounds as C5aR inhibitors” (CHEMOCENTRYX, INC., priority 2017, dated 2022)

Each molecule was assayed against C5aR (Homo sapiens (Human), UniProt P21730) (assay: Chemotaxis assay using U937 cells (C5aR mediated migration)). Details: read-out: Mig IC50.
Assay type: cell-based
Method in brief: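 U937 monocytic cells, pretreated overnight with 0.5 mM cyclic AMP, placed at 100,000 cells in the upper well above 5 μm polycarbonate filters. Lower well held 0.03 nM C5a plus compound in HBSS/1% FBS; after 1.5 h at 37° C migrated cells counted directly or by CyQuant, giving IC50.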

Chain of C5aR (P21730 whole entry): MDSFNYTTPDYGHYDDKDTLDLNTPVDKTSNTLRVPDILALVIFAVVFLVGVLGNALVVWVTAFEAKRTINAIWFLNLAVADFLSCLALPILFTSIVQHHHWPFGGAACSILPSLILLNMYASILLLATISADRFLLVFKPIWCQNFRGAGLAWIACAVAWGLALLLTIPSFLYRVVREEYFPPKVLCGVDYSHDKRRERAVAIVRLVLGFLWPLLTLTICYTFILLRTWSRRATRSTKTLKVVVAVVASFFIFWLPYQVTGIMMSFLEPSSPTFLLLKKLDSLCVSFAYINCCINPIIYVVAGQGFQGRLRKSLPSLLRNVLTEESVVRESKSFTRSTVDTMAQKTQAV

Row | Compound | IC50
1 | Cc1cccc(OCC(C)C)c1-n1nc2c(c1-c1ccc(NC(N)=O)cc1)CN(CC(C)(C(F)(F)F)C(F)(F)F)CC2 [Example 1.344] | ≤ 5 nM
2 | Cc1cccc(OCC(C)C)c1-n1nc2c(c1-c1ccc(NC(N)=O)cc1)CN(Cc1ccc(C(F)(F)F)cc1)CC2 [Example 1.345] | ≤ 5 nM
3 | Cc1cccc(OCC(C)C)c1-n1nc2c(c1-c1ccc(NC(N)=O)cc1)CN(CC(C(F)(F)F)C(F)(F)F)CC2 [Example 1.346] | 5 to 50 nM
4 | Cc1ccc(C(C)C)nc1N1CCc2nn(-c3c(C)cccc3OCC(C)C)c(-c3ccc(NC(N)=O)cc3)c2C1 [Example 1.347] | ≤ 5 nM
5 | Cc1cnc(C(C)C)cc1N1CCc2nn(-c3c(C)cccc3OCC(C)C)c(-c3ccc(NC(N)=O)cc3)c2C1 [Example 1.348] | 5 to 50 nM
6 | Cc1cccc(OCC(C)C)c1-n1nc2c(c1-c1ccc(NC(N)=O)cc1)CN(CC(C)(C)C#N)CC2 [Example 1.349] | 50 to 500 nM
7 | Cc1cccc(OCC(C)C)c1-n1nc2c(c1-c1ccc(NC(N)=O)cc1)CN(Cc1c(F)cccc1Cl)CC2 [Example 1.350] | 5 to 50 nM
8 | Cc1cccc(OCC(C)C)c1-n1nc2c(c1-c1ccc(NC(N)=O)cc1)CN(Cc1c(F)cccc1C(F)(F)F)CC2 [Example 1.351] | ≤ 5 nM
9 | Cc1cccc(OCC(C)C)c1-n1nc2c(c1-c1ccc(NC(N)=O)cc1)CN(c1ncc(C(F)(F)F)cn1)CC2 [Example 1.352] | 5 to 50 nM
10 | Cc1cccc(OCC(C)C)c1-n1nc2c(c1-c1ccc(NC(N)=O)cc1)CN(c1ncc(C(F)(F)F)cc1Cl)CC2 [Example 1.353] | 5 to 50 nM
11 | COc1cccc(F)c1CN1CCc2nn(-c3c(C)cccc3OCC(C)C)c(-c3ccc(NC(N)=O)cc3)c2C1 [Example 1.354] | 5 to 50 nM
12 | Cc1cc(C(C)C)cnc1N1CCc2nn(-c3c(C)cccc3OCC(C)C)c(-c3ccc(NC(N)=O)cc3)c2C1 [Example 1.355] | 5 to 50 nM
13 | Cc1cccc(OCC(C)C)c1-n1nc2c(c1-c1ccc(NC(N)=O)cc1)CN(Cc1c(F)cccc1F)CC2 [Example 1.356] | 5 to 50 nM
14 | Cc1cccc(OCC(C)C)c1-n1nc2c(c1-c1ccc(NC(N)=O)cc1)CN(Cc1ccc(C(F)(F)F)cc1C(F)(F)F)CC2 [Example 1.357] | ≤ 5 nM
15 | Cc1cccc(OCC(C)C)c1-n1nc2c(c1-c1ccc(NC(N)=O)cc1)CN(Cc1ccc(F)cc1C(F)(F)F)CC2 [Example 1.358] | ≤ 5 nM
16 | Cc1cccc(Cl)c1CN1CCc2nn(-c3c(C)cccc3OCC(C)C)c(-c3ccc(NC(N)=O)cc3)c2C1 [Example 1.359] | ≤ 5 nM
17 | Cc1cccc(F)c1CN1CCc2nn(-c3c(C)cccc3OCC(C)C)c(-c3ccc(NC(N)=O)cc3)c2C1 [Example 1.360] | ≤ 5 nM
18 | Cc1cccc(OCC(C)C)c1-n1nc2c(c1-c1ccc(NC(N)=O)cc1)CN(Cc1ccccc1C(F)(F)F)CC2 [Example 1.361] | ≤ 5 nM
19 | Cc1cccc(OCC(C)C)c1-n1nc2c(c1-c1ccc(NC(N)=O)cc1)CN(Cc1c(Cl)cccc1C(F)(F)F)CC2 [Example 1.362] | ≤ 5 nM
20 | Cc1cccc(OCC(C)C)c1-n1nc2c(c1-c1ccc(NC(N)=O)cc1)CN(c1cc(C(C)(C)O)ccc1F)CC2 [Example 1.363] | 50 to 500 nM
21 | Cc1cc(C(C)(C)O)cnc1N1CCc2nn(-c3c(C)cccc3OCC(C)C)c(-c3ccc(NC(N)=O)cc3)c2C1 [Example 1.364] | > 500 nM
22 | Cc1cc(C)c(CN2CCc3nn(-c4c(C)cccc4OCC(C)C)c(-c4ccc(NC(N)=O)cc4)c3C2)c(C)c1 [Example 1.365] | ≤ 5 nM

Row | Compound | IC50
23 | Cc1cccc(OCC(C)C)c1-n1nc2c(c1-c1ccc(NC(N)=O)cc1)CN(CC1(C(F)(F)F)CCCC1)CC2 [Example 1.366] | 5 to 50 nM
24 | Cc1cccc(OCC(C)C)c1-n1nc2c(c1-c1ccc(NC(N)=O)cc1)CN(Cc1c(Cl)cccc1Cl)CC2 [Example 1.367] | 5 to 50 nM
25 | Cc1cccc(OCC(C)C)c1-n1nc2c(c1-c1ccc(NC(N)=O)cc1)CN(c1cc(C(F)(F)F)ccc1F)CC2 [Example 1.368] | 5 to 50 nM
26 | Cc1cccc(OCC(C)C)c1-n1nc2c(c1-c1ccc(NC(N)=O)cc1)CN(c1ccc(F)c(C(F)(F)F)c1)CC2 [Example 1.369] | 5 to 50 nM
27 | Cc1cccc(OCC(C)C)c1-n1nc2c(c1-c1ccc(NC(N)=O)cc1)CN(c1ccc(C(C)(C)C)cn1)CC2 [Example 1.370] | 5 to 50 nM
28 | Cc1ccccc1CN1CCc2nn(-c3c(C)cccc3OCC(C)C)c(-c3ccc(NC(N)=O)cc3)c2C1 [Example 1.371] | 5 to 50 nM
29 | Cc1cccc(OCC(C)C)c1-n1nc2c(c1-c1ccc(NC(N)=O)cc1)CN(CC1(C(F)(F)F)CC1)CC2 [Example 1.372] | 5 to 50 nM
30 | Cc1cccc(OCC(C)C)c1-n1nc2c(c1-c1ccc(NC(N)=O)cc1)CN(CC(C)(C)C(F)(F)F)CC2 [Example 1.373] | 5 to 50 nM
31 | Cc1cccc(OCC(C)C)c1-n1nc2c(c1-c1ccc(NC(N)=O)cc1)CN(c1ncc(C(F)(F)F)cc1F)CC2 [Example 1.374] | 5 to 50 nM
32 | Cc1cccc(OCC(C)C)c1-n1nc2c(c1-c1ccc(NC(N)=O)cc1)CN(c1ccc(C(F)(F)F)cc1Cl)CC2 [Example 1.375] | 5 to 50 nM
33 | Cc1cccc(C)c1CN1CCc2nn(-c3c(C)cccc3OCC(C)C)c(-c3ccc(NC(N)=O)cc3)c2C1 [Example 1.376] | 5 to 50 nM
34 | Cc1cc(C(F)(F)F)ccc1N1CCc2nn(-c3c(C)cccc3OCC(C)C)c(-c3ccc(NC(N)=O)cc3)c2C1 [Example 1.377] | 5 to 50 nM
35 | Cc1cccc(OCC(C)C)c1-n1nc2c(c1-c1ccc(NC(N)=O)cc1)CN(c1ccc(C(F)(F)F)cc1F)CC2 [Example 1.378] | 5 to 50 nM
36 | Cc1cccc(OCC(C)C)c1-n1nc2c(c1-c1ccc(NC(N)=O)cc1)CN(c1ccc(Cl)c(C(F)(F)F)c1)CC2 [Example 1.379] | 5 to 50 nM
37 | CCc1cccc(C)c1-n1nc2c(c1-c1ccc(NC(N)=O)cc1)CN(c1cc(C(C)(C)C)ccc1C)CC2 [Example 1.380] | 5 to 50 nM
38 | CCC(C)(C)CN1CCc2nn(-c3c(C)cccc3OCC(C)C)c(-c3ccc(NC(N)=O)cc3)c2C1 [Example 1.381] | 5 to 50 nM
39 | Cc1cccc(OCC(C)C)c1-n1nc2c(c1-c1ccc(NC(N)=O)cc1)CN(Cc1ccccc1)CC2 [Example 1.382] | 5 to 50 nM
40 | Cc1ccc(C(C)(C)O)nc1N1CCc2nn(-c3c(C)cccc3OCC(C)C)c(-c3ccc(NC(N)=O)cc3)c2C1 [Example 1.383] | 50 to 500 nM
41 | Cc1cc(C(F)(F)F)ccc1CN1CCc2nn(-c3c(C)cccc3OCC(C)C)c(-c3ccc(NC(N)=O)cc3)c2C1 [Example 1.384] | 5 to 50 nM
42 | Cc1cccc(OCC(C)C)c1-n1nc2c(c1-c1ccc(NC(N)=O)cc1)CN(CC(C)C)CC2 [Example 1.385] | 50 to 500 nM
43 | Cc1cccc(OCC(C)C)c1-n1nc2c(c1-c1ccc(NC(N)=O)cc1)CN(c1nc(C(F)(F)F)ccc1F)CC2 [Example 1.386] | 5 to 50 nM
44 | Cc1ccc(C(C)(C)C)cc1N1CCc2nn(-c3c(C)cccc3CCC(C)C)c(-c3ccc(NC(N)=O)cc3)c2C1 [Example 1.387] | 5 to 50 nM

Row | Compound | IC50
45 | Cc1ccc(C(C)(C)C)cc1N1CCc2nn(-c3c(C)cccc3C(C)C)c(-c3ccc(NC(N)=O)cc3)c2C1 [Example 1.388] | 5 to 50 nM
46 | Cc1cccc(OCC(C)C)c1-n1nc2c(c1-c1ccc(NC(N)=O)cc1)CN(CC(C)(C)O)CC2 [Example 1.389] | > 500 nM
47 | Cc1cccc(OCC(C)C)c1-n1nc2c(c1-c1ccc(NC(N)=O)cc1)CN(Cc1ccccc1C(C)C)CC2 [Example 1.390] | 5 to 50 nM
48 | Cc1cccc(OCC(C)C)c1-n1nc2c(c1-c1ccc(NC(N)=O)cc1)CN(CC(C)C(F)(F)F)CC2 (centres unmarked) [Example 1.391] | 5 to 50 nM
49 | Cc1cccc(OCC(C)C)c1-n1nc2c(c1-c1ccc(NC(N)=O)cc1)CN(Cc1cccc(C(C)(C)C)c1)CC2 [Example 1.392] | 5 to 50 nM
50 | Cc1cccc(OCC(C)C)c1-n1nc2c(c1-c1ccc(NC(N)=O)cc1)CN(CCC(C)(C)C)CC2 [Example 1.393] | 50 to 500 nM
51 | Cc1cccc(OCC(C)C)c1-n1nc2c(c1-c1ccc(NC(N)=O)cc1)CN(c1cc(C(C)(C)C)ccn1)CC2 [Example 1.395] | 5 to 50 nM
52 | Cc1ccc(C(C)C)cc1N1CCc2nn(-c3c(C)cccc3OCC(C)C)c(-c3ccc(NC(N)=O)cc3)c2C1 [Example 1.396] | 5 to 50 nM
53 | Cc1cccc(OCC(C)C)c1-n1nc2c(c1-c1ccc(NC(N)=O)cc1)CN(C1CCCC1C)CC2 (centres unmarked) [Example 1.397] | 50 to 500 nM
54 | CCc1cccc(C)c1-n1nc2c(c1-c1ccc(NC(N)=O)cc1)CN(C(=O)OC(C)(C)C)CC2 [Example 1.399] | 50 to 500 nM
55 | Cc1ccc(C(C)(C)C)cc1N1CCc2nn(-c3c(C)cccc3CC(C)C)c(-c3ccc(N(C)C(N)=O)cc3)c2C1 [Example 1.400] | > 500 nM
56 | Cc1ccc(C(C)(C)C)cc1N1CCc2nn(-c3c(C)cccc3CC(C)C)c(-c3ccc(NC(N)=O)cc3)c2C1 [Example 1.401] | ≤ 5 nM
57 | Cc1ccc(C(C)(C)C)cc1N1CCc2nn(-c3ccccc3C(C)C)c(-c3ccc(N(C)C(N)=O)cc3)c2C1 [Example 1.402] | > 500 nM
58 | Cc1ccc(C(C)(C)C)cc1N1CCc2nn(-c3ccccc3C(C)C)c(-c3ccc(NC(N)=O)cc3)c2C1 [Example 1.403] | 50 to 500 nM
59 | Cc1cccc(OCC(C)C)c1-n1nc2c(c1-c1ccc(NC(N)=O)cc1)CN(CC1CCCC1)CC2 [Example 1.404] | 5 to 50 nM
60 | Cc1cccc(OCC(C)C)c1-n1nc2c(c1-c1ccc(NC(N)=O)cc1)CN(CC(C)(C)C)CC2 [Example 1.405] | 5 to 50 nM
61 | Cc1cccc(OCC(C)C)c1-n1nc2c(c1-c1ccc(NC(N)=O)cc1)CN(C1CCCCC1)CC2 [Example 1.406] | 50 to 500 nM
62 | Cc1cccc(OCC(C)C)c1-n1nc2c(c1-c1ccc(NC(N)=O)cc1)CN(c1ccc(C(F)(F)F)cc1)CC2 [Example 1.407] | 5 to 50 nM
63 | COc1cccc(C)c1-n1nc2c(c1-c1ccc(NC(N)=O)cc1)CN(c1ncccc1C)CC2 [Example 1.408] | 50 to 500 nM
64 | COc1cccc(C)c1-n1nc2c(c1-c1ccc(NC(N)=O)c(C)c1)CN(c1cc(C(C)(C)C)ccc1C)CC2 [Example 1.409] | 5 to 50 nM
65 | Cc1cccc(OCC(C)C)c1-n1nc2c(c1-c1ccc(NC(N)=O)cc1)CN(C1CCCC1)CC2 [Example 1.410] | 50 to 500 nM
